From article PMC4551797 (PLoS ONE, 2015)

Assays:
DIO C57BL/6 mice [1] = test: Oral glucose tolerance test in diet-induced obese mice, acute or after 2-week dosing; format: in vivo, mouse; conditions: 2 g/kg glucose
Protocol: For measurement of glucose only, overnight-fasted C57BL/6 mice in a normal light cycle were orally dosed with vehicle or compound, followed by an oral bolus of 3 g/kg glucose at 15 minutes post compound. At 0, 20, 40, 60, and 120 minutes post glucose dose, blood glucose was assessed via glucometers. Resulting raw data was used to generate AUCs. For measurement of hormones and glucose, overnight-fasted C57BL/6 mice acclimated for two weeks to a reverse light cycle were orally dosed with vehicle or compound, followed by an oral bolus of 3 g/kg glucose at 15 minutes post compound. At 0, 2, 5, 10, 20, 40, and 60 minutes post glucose dose, blood glucose was assessed via glucometers, followed immediately by collection of plasma for active GLP-1 (Mesoscale Discovery), insulin (Mesoscale Discovery), and total PYY. […] At 0, 15, 30, 60, and 120 minutes post glucose dose, blood glucose was assessed via glucometers. […]
While compound 18 led to significant glucose lowering in an OGTT studies when dosed acutely, it remained unclear if the mechanism of TGR5-stimulated GLP-1 secretion desensitizes over time. […] For the chronic study, DIO mice were orally dosed with vehicle or 60 mg/kg compound 18 once a day for two weeks; body weights and food intake were measured during the treatment period. […]

DIO C57BL/6 mice [2] = test: Body weight, food intake and body composition in DIO mice over two weeks; format: in vivo, mouse; conditions: 60 mg/kg oral once a day
Protocol: Body composition of mice was determined using Quantitative Nuclear Magnetic Resonance analysis (ECHO MRI, 3–1 Composition Analyzer; Echo Medical Systems, Houston, TX). DIO mice were randomized by body weight and fat mass prior to administration of compounds. Changes in body weight, cumulative food intake, and fat and lean mass were recorded for up to a two week period.
While compound 18 led to significant glucose lowering in an OGTT studies when dosed acutely, it remained unclear if the mechanism of TGR5-stimulated GLP-1 secretion desensitizes over time. […] In order to determine if desensitization occurs, as well as explore the potential for changes in body weight by compound 18, we obtained DIO C57BL/6 mice and randomly assigned them into either an acute or chronic study. For the acute experiment, overnight-fasted DIO mice were dosed with vehicle or 60 mg/kg of compound 18 the next morning, and an OGTT was performed 30 minutes after compound dosing using 2 g/kg glucose. For the chronic study, DIO mice were orally dosed with vehicle or 60 mg/kg compound 18 once a day for two weeks; body weights and food intake were measured during the treatment period. After two weeks, mice were over-night fasted, dosed the following morning, and subjected to an OGTT 30 minutes after compound dosing.
Diet-induced obese (DIO) C57BL/6 mice were either dosed acutely or chronically for two weeks with vehicle (white circles, white bars) or compound 18 at 60 mg/kg (black triangles, black bars). An OGTT on over-night fasted DIO mice was performed after either a single dose (A, acute) or after two weeks of dosing (B, chronic), using 2 g/kg glucose dosed 30 minutes after compound dosing. Changes in body weights (C) and cumulative food intake (D) were recorded for the two week period. n = 8; mean +/- SEM. * P < 0.01.

C57BL/6 mice = test: Three-day study on GLP-1 and gallbladder filling (bile weight); format: in vivo, mouse
Protocol: C57BL/6 mice, Tgr5 KO mice, or their wild-type littermate controls were orally dosed with vehicle or compounds twice per day for 3 days, with overnight fasting performed on the evening of day 2. On the morning of day 3, animals were dosed orally with compounds and then euthanized by CO2 asphyxiation at 30 minutes after the fifth dose. Plasma was collected for analysis of GLP-1 (X-36) amide as mentioned above, followed immediately by incision into the abdominal cavity to remove and weigh bile from the gallbladder.
On the third day, compound was dosed in the morning followed 30 minutes later by measurement of bile filling (A) by use of a needle and syringe and GLP-1 (x-36) amide (B) by cardiac puncture.

NCI-H716 cells = test: GLP-1 secretion in NCI-H716 enteroendocrine cells; format: cell-based; conditions: Homo sapiens
Protocol: HEK-293 cells were obtained from ATCC and a clonal HEK-293 line overexpressing mouse TGR5 was prepared. Both were maintained in Dulbecco’s modified Eagle’s medium (DMEM) containing 10% fetal bovine serum (FBS) and penicillin /streptomycin. Mouse STC-1 cells were obtained from ATCC under agreement with the Cold Spring Harbor Laboratories and maintained in DMEM containing 10% FBS and penicillin /streptomycin. NCI-H716 cells were obtained from ATCC and were maintained in RPMI-1640 with 10% FBS. NCI-H716 cells were cultured in 96 well plate coated with Matrigel (BD). After 72 hours, cAMP production stimulated with TGR5 agonists was measured using HTRF cAMP assay kit (CISBIO). The level of cAMP in suspensions of STC-1 cells stimulated with increasing concentrations of TGR5 agonists was also determined. […] The production of GLP-1 was determined using a GLP-1 Assay (7–36) amide kit (Mesoscale Discovery) following the manufacturer’s instructions. […]
Compound 18 is a novel small molecule agonist of TGR5 developed by Eli Lilly and Company (MW = 508.62, Fig 2A). […] In order to determine potency of compound 18 for the mouse and human TGR5 receptor in cells with endogenous levels of receptor, we measured compound 18-stimulated cAMP production and GLP-1 secretion in both mouse (STC-1) and human (NCI-H716) enteroendocrine cell lines, that we have shown to express TGR5 natively (Fig 1). […]

[3] = 1, 3, 10, 30, 100 mg/kg oral BID 3 days, 30 min after last dose

## CC(=O)N1CCC(C(C)N(C(=O)COc2cccc3sc4nc(C)cn4c23)c2ccc(F)cc2)CC1 (centres unmarked) [compound 18]
DIO C57BL/6 mice [1]; acute, single 60 mg/kg oral dose
  reduction in the glucose excursion (OGTT): 33 ± 5%
DIO C57BL/6 mice [1]; chronic, 60 mg/kg oral once a day for two weeks
  reduction in the glucose excursion (OGTT): 27 ± 6%
DIO C57BL/6 mice [2]
  food intake: no change in food intake
  reduction in body weight gain versus vehicle: 1.4 g
DIO C57BL/6 mice [2]; P = 0.995
  lean mass: no difference in lean mass
DIO C57BL/6 mice [2]; p = 0.067
  gain in fat mass: trend towards reduced gain in fat mass
C57BL/6 mice; [3]
  bile weight (gallbladder filling): clear dose dependent increase in bile weight
  plasma GLP-1 levels: elevated GLP-1 levels
C57BL/6 mice; oral BID 3 days
  doses with significant effects on GLP-1 secretion: ≥ 30 mg/kg
  doses with significant effects on bile weight: ≥ 3 mg/kg
NCI-H716 cells
  EC50: 2.66 µM
